Experimental data reported in PubChem BioAssay (NCI).
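Protocol summary: plate cells (96-well), add compound at 5 concentrations, incubate 48 h, interpolate endpoints linearly. TGI is the concentration that stops growth completely.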

Experiments:
Assay in all cases: NCI-60 cell line screen, 48 h
[1] = tested on: 786-0 renal
[2] = tested on: A498 renal
[3] = tested on: A549 NSCLC
[4] = tested on: ACHN renal
[5] = tested on: BT-549 breast
[6] = tested on: CAKI-1 renal
[7] = tested on: CCRF-CEM leukemia
[8] = tested on: COLO 205 colon
[9] = tested on: DU-145 prostate
[10] = tested on: EKVX NSCLC
[11] = tested on: HCT-116 colon
[12] = tested on: HCT-15 colon
[13] = tested on: HL-60(TB) leukemia
[14] = tested on: HOP-62 NSCLC
[15] = tested on: HOP-92 NSCLC
[16] = tested on: HS 578T breast
[17] = tested on: HT29 colon
[18] = tested on: IGROV1 ovarian
[19] = tested on: K-562 leukemia
[20] = tested on: KM12 colon
[21] = tested on: LOX IMVI melanoma
[22] = tested on: M14 melanoma
[23] = tested on: MALME-3M melanoma
[24] = tested on: MCF7 breast
[25] = tested on: MDA-MB-231 breast
[26] = tested on: MDA-MB-435
[27] = tested on: MDA-N
[28] = tested on: MOLT-4 leukemia
[29] = tested on: NCI-H226 lung
[30] = tested on: NCI-H23 lung
[31] = tested on: NCI-H460 lung
[32] = tested on: NCI-H522 lung
[33] = tested on: NCI/ADR-RES ovarian
[34] = tested on: OVCAR-3 ovarian
[35] = tested on: OVCAR-4 ovarian
[36] = tested on: OVCAR-5 ovarian
[37] = tested on: OVCAR-8 ovarian
[38] = tested on: PC-3 prostate
[39] = tested on: RPMI-8226 leukemia
[40] = tested on: RXF 393 renal
[41] = tested on: SF-268 CNS
[42] = tested on: SF-295 CNS
[43] = tested on: SF-539 CNS
[44] = tested on: SK-MEL-2 melanoma
[45] = tested on: SK-MEL-28 melanoma
[46] = tested on: SK-MEL-5 melanoma
[47] = tested on: SK-OV-3 ovarian
[48] = tested on: SN12C renal
[49] = tested on: SNB-19 CNS
[50] = tested on: SNB-75 CNS
[51] = tested on: SR leukemia
[52] = tested on: SW-620 colon
[53] = tested on: T-47D breast
[54] = tested on: TK-10 renal
[55] = tested on: U251 CNS
[56] = tested on: UACC-257 melanoma
[57] = tested on: UACC-62 melanoma
[58] = tested on: UO-31 renal

For `O=C(O)c1nnsc1-c1ccc(-c2snnc2C(=O)O)cc1`, the TGI [1] was > 100 µM, the TGI [2] was > 100 µM and the TGI [3] was > 100 µM. For the same molecule, the TGI [4] was > 100 µM, the TGI [5] was > 100 µM and the TGI [6] was > 100 µM. For the same molecule, the TGI [7] was 9.63 µM, the TGI [8] was > 100 µM and the TGI [9] was > 100 µM. The TGI [10] was > 100 µM, the TGI [11] was > 100 µM and the TGI [12] was > 100 µM. For the same molecule, the TGI [13] was > 100 µM, the TGI [14] was > 100 µM and the TGI [15] was > 100 µM. For the same molecule, the TGI [16] was > 100 µM, the TGI [17] was > 100 µM and the TGI [18] was > 100 µM. For the same molecule, the TGI [19] was 98.3 µM, the TGI [20] was > 100 µM and the TGI [21] was > 100 µM. The TGI [22] was > 100 µM, the TGI [23] was > 100 µM and the TGI [24] was > 100 µM. The TGI [25] was > 100 µM, the TGI [26] was > 100 µM and the TGI [27] was > 100 µM. The TGI [28] was 51.4 µM, the TGI [29] was > 100 µM and the TGI [30] was > 100 µM. The TGI [31] was > 100 µM, the TGI [32] was > 100 µM and the TGI [33] was > 100 µM. For the same molecule, the TGI [34] was > 100 µM, the TGI [35] was > 100 µM and the TGI [36] was > 100 µM. The TGI [37] was > 100 µM, the TGI [38] was > 100 µM and the TGI [39] was 68.6 µM. For the same molecule, the TGI [40] was > 100 µM, the TGI [41] was > 100 µM and the TGI [42] was > 100 µM. For the same molecule, the TGI [43] was 69.7 µM, the TGI [44] was > 100 µM and the TGI [45] was > 100 µM. For the same molecule, the TGI [46] was > 100 µM, the TGI [47] was > 100 µM and the TGI [48] was > 100 µM. The TGI [49] was > 100 µM, the TGI [50] was > 100 µM and the TGI [51] was > 100 µM. The TGI [52] was > 100 µM, the TGI [53] was > 100 µM and the TGI [54] was > 100 µM. The TGI [55] was > 100 µM, the TGI [56] was > 100 µM and the TGI [57] was > 100 µM. For the same molecule, the TGI [58] was > 100 µM.
For `CCCNC(=O)NNC(=O)c1c[nH]c2nc(C)ccc2c1=O`, the TGI [1] was > 100 µM, the TGI [2] was > 100 µM and the TGI [3] was > 100 µM. The TGI [4] was > 100 µM, the TGI [5] was > 100 µM and the TGI [6] was > 100 µM. For the same molecule, the TGI [7] was > 100 µM, the TGI [8] was > 100 µM and the TGI [9] was > 100 µM. The TGI [10] was > 100 µM, the TGI [11] was > 100 µM and the TGI [12] was > 100 µM. For the same molecule, the TGI [13] was > 100 µM, the TGI [14] was > 100 µM and the TGI [16] was > 100 µM. The TGI [17] was > 100 µM, the TGI [18] was > 100 µM and the TGI [19] was > 100 µM. The TGI [20] was > 100 µM, the TGI [21] was > 100 µM and the TGI [22] was > 100 µM. For the same molecule, the TGI [23] was > 100 µM, the TGI [24] was > 100 µM and the TGI [25] was > 100 µM. The TGI [26] was > 100 µM, the TGI [27] was > 100 µM and the TGI [28] was > 100 µM. For the same molecule, the TGI [29] was > 100 µM, the TGI [30] was > 100 µM and the TGI [31] was > 100 µM. For the same molecule, the TGI [32] was > 100 µM, the TGI [33] was > 100 µM and the TGI [34] was > 100 µM. The TGI [35] was > 100 µM, the TGI [36] was > 100 µM and the TGI [37] was > 100 µM. For the same molecule, the TGI [38] was > 100 µM, the TGI [39] was > 100 µM and the TGI [40] was > 100 µM. The TGI [41] was > 100 µM, the TGI [42] was > 100 µM and the TGI [44] was > 100 µM. The TGI [45] was > 100 µM, the TGI [46] was > 100 µM and the TGI [48] was > 100 µM. The TGI [49] was > 100 µM, the TGI [52] was > 100 µM and the TGI [53] was > 100 µM. The TGI [54] was > 100 µM, the TGI [55] was > 100 µM and the TGI [56] was > 100 µM. For the same molecule, the TGI [57] was > 100 µM and the TGI [58] was > 100 µM.
